# Data published in the supplement of paper PMC10307832.
# Columns and labels:
# Assay in all cases: relative viability (nuclei count vs DMSO), 5 days (fraction); higher = more cells survive
# [1] = compound: CC1=CC=C(C=C1)C(=O)CN2C3=C(CCCC3)SC2=N [Pifithrin_alpha] + CC(=O)c1c(C)c2cnc(Nc3ccc(N4CCNCC4)cn3)nc2n(C2CCCC2)c1=O [Palbociclib] (partner 0.5 µM)
# Summary of the method: (§1)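 Lung cancer cell lines were pin-tool dosed in 1536-well plates on the day after seeding, with either a lone drug or a fixed anchor-drug dose plus five library-drug doses (not always all listed) in √10 steps. Nuclei were counted on 4× images after 5 days. Relative viability is the ratio of treated-well to vehicle-well nuclei counts, with each value a median of duplicate plates.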
# Axitinib + Tozasertib = compound: CNC(=O)c1ccccc1Sc1ccc2c(/C=C/c3ccccn3)n[nH]c2c1 [Axitinib] + Cc1cc(Nc2cc(N3CCN(C)CC3)nc(Sc3ccc(NC(=O)C4CC4)cc3)n2)n[nH]1 [Tozasertib] (partner 0.1 µM)
# Summary of the method: as §1
# Bemcentinib + Navitoclax = compound: Nc1nc(Nc2ccc3c(c2)CC[C@@H](N2CCCC2)CC3)nn1-c1cc2c(nn1)-c1ccccc1CCC2 [Bemcentinib] + CC1(C)CCC(c2ccc(Cl)cc2)=C(CN2CCN(c3ccc(C(=O)NS(=O)(=O)c4ccc(N[C@H](CCN5CCOCC5)CSc5ccccc5)c(S(=O)(=O)C(F)(F)F)c4)cc3)CC2)C1 [Navitoclax] (partner 0.5 µM)
# Summary of the method: as §1
# Bemcentinib + AZD7762 = compound: Nc1nc(Nc2ccc3c(c2)CC[C@@H](N2CCCC2)CC3)nn1-c1cc2c(nn1)-c1ccccc1CCC2 [Bemcentinib] + NC(=O)Nc1cc(-c2cccc(F)c2)sc1C(=O)N[C@H]1CCCNC1 [AZD7762] (partner 0.2 µM)
# Summary of the method: as §1
Cell Line,relative viability ([1]; first compound 1 µM),relative viability ([1]; first compound 3.162 µM),relative viability ([1]; first compound 10 µM),relative viability ([1]; first compound 100 µM),relative viability (Axitinib + Tozasertib; first compound 0.005 µM),relative viability (Axitinib + Tozasertib; first compound 0.01581 µM),relative viability (Axitinib + Tozasertib; first compound 0.05 µM),relative viability (Axitinib + Tozasertib; first compound 0.1581 µM),relative viability (Axitinib + Tozasertib; first compound 0.5 µM),relative viability (Bemcentinib + Navitoclax; first compound 0.04 µM),relative viability (Bemcentinib + Navitoclax; first compound 0.1265 µM),relative viability (Bemcentinib + Navitoclax; first compound 0.4 µM),relative viability (Bemcentinib + Navitoclax; first compound 1.265 µM),relative viability (Bemcentinib + Navitoclax; first compound 4 µM),relative viability (Bemcentinib + AZD7762; first compound 0.04 µM),relative viability (Bemcentinib + AZD7762; first compound 0.1265 µM),relative viability (Bemcentinib + AZD7762; first compound 0.4 µM),relative viability (Bemcentinib + AZD7762; first compound 1.265 µM),relative viability (Bemcentinib + AZD7762; first compound 4 µM),relative viability ([1]; first compound 31.62 µM)
HCC-366,0.33,0.289,0.28,0.258,0.135,0.116,0.133,0.136,0.142,1.11,1.23,1.11,1.07,1.03,0.253,0.382,0.248,0.163,0.208,
IA-LM,,,,,,,,,,0.748,0.988,0.975,0.841,0.725,,,,,,
LCLC-103H,0.525,0.518,0.472,0.456,0.52,0.551,0.432,0.52,0.519,,,,,,0.764,0.818,0.851,0.81,0.852,0.464
NCI-H358,0.134,0.151,0.137,0.119,0.105,0.0955,0.105,0.101,0.108,,,,,,0.527,0.516,0.562,0.411,0.602,0.115
NCI-H520,0.203,0.254,0.26,0.222,0.401,,0.439,0.417,0.347,1.19,1.19,1.42,1.11,1.07,,,,,,0.205
NCI-H522,0.988,0.854,0.834,0.947,0.662,0.573,0.46,0.575,0.577,,,,,,0.872,0.766,0.771,0.949,0.849,0.893
NCI-H596,,,,,1.05,0.938,0.877,0.893,0.935,0.955,0.994,1.11,1.04,1.14,1.09,1.13,1.2,0.941,1.12,
NCI-H661,0.397,0.4,0.36,0.334,0.351,0.363,0.363,0.359,0.371,,,,,,,,,,,0.386
NCI-H1299,,,,,,,,,,1.02,1.04,1.05,1.04,1,,,,,,
NCI-H1623,,,,,0.457,0.506,0.432,0.498,0.45,,,,,,,,,,,
NCI-H1648,0.221,0.313,0.305,0.296,0.506,0.643,,0.483,0.602,,,,,,0.579,0.613,0.709,0.572,0.638,0.337
NCI-H1650,0.285,0.321,0.389,0.282,0.448,0.382,0.49,0.411,0.482,1.1,1.29,0.946,1.33,1.16,,,,,,0.307
NCI-H1703,,,,,,,,,,1.08,1.03,1.34,1.04,0.85,0.109,0.121,0.145,0.16,0.134,
NCI-H1792,,0.589,0.637,0.669,,,,,,0.668,0.57,0.859,0.697,0.665,0.577,0.888,0.681,0.442,0.669,0.535
NCI-H2009,0.194,0.219,0.172,0.174,0.76,0.815,0.708,0.786,1.08,1.12,1.16,1.22,1.14,1.21,,,,,,0.128
NCI-H2023,0.388,0.327,0.365,0.184,0.368,0.395,0.38,0.483,0.604,0.963,1.12,1.11,1.12,0.996,,,,,,0.227
NCI-H2228,0.833,0.75,0.659,0.853,0.266,0.289,0.308,0.293,0.291,,1.06,1.15,0.909,1.08,,,,,,0.453
NCI-H2342,0.516,0.494,0.493,0.501,0.618,0.685,0.448,0.593,0.528,,,,,,0.415,0.516,0.472,0.52,0.493,0.53
SK-LU-1,0.349,0.412,0.405,0.413,0.41,0.345,0.333,0.375,0.47,0.867,0.986,0.894,0.807,0.615,,,,,,0.308
SK-MES-1,0.294,0.286,0.267,0.267,0.996,0.904,0.818,0.947,1.07,1.25,1.22,1.36,1.49,1.47,,,,,,0.266
SW 900,0.58,0.513,0.453,0.526,0.84,0.572,0.571,0.639,0.642,,,,,,0.559,0.65,0.689,0.552,0.538,0.388
SW 1573,,0.395,0.367,0.266,0.169,0.214,0.166,0.178,0.249,0.868,0.979,1.09,1.18,0.97,,,,,,0.241
UMC-11,0.342,0.289,0.301,0.296,0.211,0.195,0.2,0.202,0.206,0.274,0.327,0.34,0.317,0.307,,,,,,0.283
